Measured values from patent US12421225B2, “Heteroaromatic amide derivative and medicament containing the same” (KAKEN PHARMACEUTICAL CO., LTD., priority 2018, dated 2025).

Assays:
[1] = molecular target: human Nav1.7 (Homo sapiens (Human), UniProt Q15858); assay: Human Nav1.7 inhibitory activity evaluation (automated patch clamp QPatch16X, HEK293A cells stably expressing human Nav1.7 and human Navβ1); type: cell-based
In short: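 IC50 calculated from the concentration-response of inward current evoked by the second −10 mV, 50 ms depolarisation, which follows a 15 s conditioning step at roughly 30-40% inactivation and a 100 ms −120 mV interval. Cells: HEK293A expressing human Nav1.7/Navβ1, automated patch clamp, room temperature, 0.1% DMSO final.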

[2] = molecular target: human Nav1.5 (Homo sapiens (Human), UniProt Q14524); assay: Human Nav1.5 inhibitory activity evaluation (automated patch clamp QPatch16X, HEK293 cells stably expressing human Nav1.5); type: cell-based
In short: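 IC50 derived from concentration-response of inward current at the 20th of 20 action-potential-mimicking pulses (holding −80 mV, leak corrected with −100 mV step). HEK293 cells stably expressing human Nav1.5, room temperature, extracellular pH 7.4, intracellular CsF-based pH 7.3, 0.1% DMSO.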

[3] = human Nav1.7, automated patch clamp
[4] = human Nav1.5, automated patch clamp
[5] = HEK293A cells stably expressing human Nav1.7 and human Navβ1, automated patch clamp QPatch16X
[6] = HEK293 cells stably expressing human Nav1.5, automated patch clamp QPatch16X

Chain of human Nav1.7 (Q15858 whole entry): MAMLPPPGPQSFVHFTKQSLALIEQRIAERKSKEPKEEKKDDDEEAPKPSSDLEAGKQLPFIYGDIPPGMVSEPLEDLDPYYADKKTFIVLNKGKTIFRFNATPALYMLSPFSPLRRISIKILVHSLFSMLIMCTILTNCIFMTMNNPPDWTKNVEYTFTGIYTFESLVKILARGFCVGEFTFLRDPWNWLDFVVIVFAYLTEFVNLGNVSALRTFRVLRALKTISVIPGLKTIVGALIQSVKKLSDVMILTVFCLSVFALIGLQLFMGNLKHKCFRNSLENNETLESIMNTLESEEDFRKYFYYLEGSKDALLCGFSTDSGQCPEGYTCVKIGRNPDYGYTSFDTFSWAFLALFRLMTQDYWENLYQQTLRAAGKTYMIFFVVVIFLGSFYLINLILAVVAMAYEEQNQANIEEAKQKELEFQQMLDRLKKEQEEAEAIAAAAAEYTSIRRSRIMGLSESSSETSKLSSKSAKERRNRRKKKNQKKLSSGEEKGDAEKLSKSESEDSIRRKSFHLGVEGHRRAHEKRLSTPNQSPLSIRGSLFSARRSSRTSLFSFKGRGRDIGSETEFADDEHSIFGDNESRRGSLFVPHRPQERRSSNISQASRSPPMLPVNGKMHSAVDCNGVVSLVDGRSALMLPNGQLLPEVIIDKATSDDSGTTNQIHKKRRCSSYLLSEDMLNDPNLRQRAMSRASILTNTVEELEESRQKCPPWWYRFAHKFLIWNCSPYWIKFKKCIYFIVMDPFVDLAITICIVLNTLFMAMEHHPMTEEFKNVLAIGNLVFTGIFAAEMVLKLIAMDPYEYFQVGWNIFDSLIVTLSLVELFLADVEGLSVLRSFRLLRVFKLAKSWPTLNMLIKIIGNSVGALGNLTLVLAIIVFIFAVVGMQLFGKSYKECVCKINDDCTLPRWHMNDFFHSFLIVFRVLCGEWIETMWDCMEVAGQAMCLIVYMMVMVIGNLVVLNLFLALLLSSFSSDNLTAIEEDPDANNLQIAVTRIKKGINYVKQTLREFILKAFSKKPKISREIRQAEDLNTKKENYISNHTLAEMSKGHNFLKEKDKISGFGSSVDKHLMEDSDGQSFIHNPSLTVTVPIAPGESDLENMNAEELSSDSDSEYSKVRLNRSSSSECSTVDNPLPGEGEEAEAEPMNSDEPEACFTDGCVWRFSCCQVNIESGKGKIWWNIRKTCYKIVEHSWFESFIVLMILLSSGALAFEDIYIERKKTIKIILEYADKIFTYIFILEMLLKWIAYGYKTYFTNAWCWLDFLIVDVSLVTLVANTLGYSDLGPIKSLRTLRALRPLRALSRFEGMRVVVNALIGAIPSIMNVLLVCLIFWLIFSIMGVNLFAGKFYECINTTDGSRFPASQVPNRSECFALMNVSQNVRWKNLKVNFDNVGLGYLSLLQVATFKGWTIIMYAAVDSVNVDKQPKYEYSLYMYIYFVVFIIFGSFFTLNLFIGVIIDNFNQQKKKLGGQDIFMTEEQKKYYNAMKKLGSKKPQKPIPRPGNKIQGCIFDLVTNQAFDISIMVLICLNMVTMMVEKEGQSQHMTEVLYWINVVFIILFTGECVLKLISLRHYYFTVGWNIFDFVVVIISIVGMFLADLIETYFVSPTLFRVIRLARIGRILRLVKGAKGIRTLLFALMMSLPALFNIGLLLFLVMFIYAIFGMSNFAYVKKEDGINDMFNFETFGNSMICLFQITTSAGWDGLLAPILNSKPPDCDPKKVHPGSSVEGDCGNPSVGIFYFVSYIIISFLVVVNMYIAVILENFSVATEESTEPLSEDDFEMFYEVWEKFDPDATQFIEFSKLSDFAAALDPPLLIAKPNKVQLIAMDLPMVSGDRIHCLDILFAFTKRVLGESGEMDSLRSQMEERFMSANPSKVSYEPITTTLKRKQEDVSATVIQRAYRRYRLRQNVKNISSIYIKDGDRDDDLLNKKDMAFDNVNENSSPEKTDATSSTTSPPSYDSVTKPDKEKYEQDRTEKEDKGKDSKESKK
Chain of human Nav1.7 (Q07699 19-218 partner): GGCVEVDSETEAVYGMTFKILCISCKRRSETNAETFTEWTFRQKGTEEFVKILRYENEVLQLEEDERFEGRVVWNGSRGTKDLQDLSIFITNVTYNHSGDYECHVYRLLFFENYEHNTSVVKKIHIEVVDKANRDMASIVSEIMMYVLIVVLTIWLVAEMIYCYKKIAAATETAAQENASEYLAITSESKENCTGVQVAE
Chain of human Nav1.5 (Q14524 whole entry): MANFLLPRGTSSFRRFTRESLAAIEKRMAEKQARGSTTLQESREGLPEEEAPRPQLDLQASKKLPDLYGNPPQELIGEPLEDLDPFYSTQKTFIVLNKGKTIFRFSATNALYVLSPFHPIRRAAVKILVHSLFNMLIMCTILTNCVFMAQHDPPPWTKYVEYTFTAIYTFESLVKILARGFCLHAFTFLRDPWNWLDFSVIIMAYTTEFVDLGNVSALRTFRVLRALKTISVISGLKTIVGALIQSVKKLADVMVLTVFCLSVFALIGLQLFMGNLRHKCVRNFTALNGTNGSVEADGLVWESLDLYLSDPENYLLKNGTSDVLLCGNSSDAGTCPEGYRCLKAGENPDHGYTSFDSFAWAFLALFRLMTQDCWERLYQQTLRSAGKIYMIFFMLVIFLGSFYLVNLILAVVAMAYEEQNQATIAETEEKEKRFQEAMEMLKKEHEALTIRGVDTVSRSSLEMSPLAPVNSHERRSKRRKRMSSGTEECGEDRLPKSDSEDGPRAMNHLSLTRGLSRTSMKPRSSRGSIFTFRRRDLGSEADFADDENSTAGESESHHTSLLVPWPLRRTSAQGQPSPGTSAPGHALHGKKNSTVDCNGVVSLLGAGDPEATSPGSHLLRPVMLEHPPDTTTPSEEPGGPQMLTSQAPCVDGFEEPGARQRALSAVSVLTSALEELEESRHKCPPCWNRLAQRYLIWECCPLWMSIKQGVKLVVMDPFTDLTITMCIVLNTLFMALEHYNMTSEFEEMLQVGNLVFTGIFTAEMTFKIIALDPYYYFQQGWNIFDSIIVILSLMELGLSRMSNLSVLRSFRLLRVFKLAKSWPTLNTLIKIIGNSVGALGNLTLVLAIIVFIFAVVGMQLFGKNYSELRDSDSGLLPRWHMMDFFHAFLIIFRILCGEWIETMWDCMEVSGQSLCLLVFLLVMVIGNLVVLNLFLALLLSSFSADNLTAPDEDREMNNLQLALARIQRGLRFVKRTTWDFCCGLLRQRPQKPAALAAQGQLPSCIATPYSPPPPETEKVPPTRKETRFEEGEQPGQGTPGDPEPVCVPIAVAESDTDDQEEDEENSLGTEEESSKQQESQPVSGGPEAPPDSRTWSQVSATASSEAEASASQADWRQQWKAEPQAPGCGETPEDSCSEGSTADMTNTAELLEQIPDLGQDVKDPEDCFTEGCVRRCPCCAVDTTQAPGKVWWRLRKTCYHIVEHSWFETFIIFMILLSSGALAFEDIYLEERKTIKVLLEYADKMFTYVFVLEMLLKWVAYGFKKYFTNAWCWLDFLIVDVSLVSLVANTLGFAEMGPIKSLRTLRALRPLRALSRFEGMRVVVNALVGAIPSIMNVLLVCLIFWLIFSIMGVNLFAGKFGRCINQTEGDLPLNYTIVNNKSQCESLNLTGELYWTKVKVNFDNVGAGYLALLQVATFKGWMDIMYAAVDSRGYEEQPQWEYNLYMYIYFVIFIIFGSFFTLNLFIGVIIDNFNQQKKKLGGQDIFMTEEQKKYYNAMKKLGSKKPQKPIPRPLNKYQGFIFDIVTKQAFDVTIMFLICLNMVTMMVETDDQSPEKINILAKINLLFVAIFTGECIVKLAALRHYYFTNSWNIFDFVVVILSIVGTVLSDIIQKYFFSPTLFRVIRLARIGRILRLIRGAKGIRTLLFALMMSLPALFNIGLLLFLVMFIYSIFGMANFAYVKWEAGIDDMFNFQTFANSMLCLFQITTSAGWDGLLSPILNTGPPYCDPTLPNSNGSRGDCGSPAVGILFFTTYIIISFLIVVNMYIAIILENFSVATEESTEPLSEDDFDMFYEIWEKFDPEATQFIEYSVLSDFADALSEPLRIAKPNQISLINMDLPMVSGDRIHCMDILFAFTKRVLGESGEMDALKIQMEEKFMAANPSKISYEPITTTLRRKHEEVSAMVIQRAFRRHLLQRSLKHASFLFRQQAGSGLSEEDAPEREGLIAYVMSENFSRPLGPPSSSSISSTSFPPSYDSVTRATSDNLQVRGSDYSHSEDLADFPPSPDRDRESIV

Row | IC50 [1, 3] | IC50 [1, 5] | SMILES | IC50 [2, 4] | IC50 [2, 6]
1 | < 1 µM |  | Cc1ccc2c(c1)C[C@@H](NC(=O)c1cc3n(n1)CC(CCNCC(F)(F)F)O3)CO2 (single isomer, unassigned) [228 (isomer A)] | ≥ 3 µM | 
2 | < 1 µM |  | O=C(N[C@H]1COc2ccc(C(F)(F)F)cc2C1)c1cc2n(n1)CC(CCNCC(F)(F)F)O2 (single isomer, unassigned) [230 (isomer A)] | ≥ 3 µM | 
3 | < 1 µM |  | O=C(N[C@H]1COc2ccc(COCC(F)(F)F)cc2C1)c1cc2n(n1)CC(CCNCC(F)(F)F)O2 (single isomer, unassigned) [232 (isomer A)] | 1 to 3 µM | 
4 | < 1 µM |  | O=C(N[C@H]1COc2ccc(COCC(F)(F)F)cc2C1)c1cc2n(n1)CC(CCNCC(F)(F)F)O2 (single isomer, unassigned) [232 (isomer B)] | ≥ 3 µM | 
5 | < 1 µM |  | O=C(N[C@H]1COc2ccc(Cl)cc2C1)c1cc2n(n1)CC(CCN1CC(F)(F)C1)O2 (single isomer, unassigned) [234 (isomer A)] | ≥ 3 µM | 
6 | < 1 µM |  | O=C(N[C@H]1COc2ccc(Cl)cc2C1)c1cc2n(n1)CC(CCN1CC(F)(F)C1)O2 (single isomer, unassigned) [234 (isomer B)] | < 1 µM | 
7 | < 1 µM |  | O=C(N[C@H]1COc2ccc(C(F)(F)F)cc2C1)c1cc2n(n1)CC(CCN1CC(F)(F)C1)O2 (single isomer, unassigned) [236 (isomer B)] | 1 to 3 µM | 
8 | < 1 µM |  | N#Cc1ccc2c(c1)C[C@@H](NC(=O)c1cc3n(n1)CC(CCSCC(F)(F)F)O3)CO2 (single isomer, unassigned) [244 (isomer B)] | < 1 µM | 
9 | < 1 µM |  | N#Cc1ccc2c(c1)C[C@@H](NC(=O)c1cc3n(n1)CC(CCCOCC(F)(F)F)O3)CO2 (single isomer, unassigned) [246 (isomer A)] | 1 to 3 µM | 
10 | < 1 µM |  | N#Cc1ccc2c(c1)C[C@@H](NC(=O)c1cc3n(n1)CC(CCCOCC(F)(F)F)O3)CO2 (single isomer, unassigned) [246 (isomer B)] | ≥ 3 µM | 
11 | < 1 µM |  | N#Cc1ccc2c(c1)C[C@@H](NC(=O)c1cc3n(n1)CC(CCCOC(F)(F)F)O3)CO2 (single isomer, unassigned) [247 (isomer A)] | 1 to 3 µM | 
12 | < 1 µM |  | N#Cc1ccc2c(c1)C[C@@H](NC(=O)c1cc3n(n1)CC(CCCOC(F)F)O3)CO2 (single isomer, unassigned) [248 (isomer A)] | 1 to 3 µM | 
13 | < 1 µM |  | O=C(N[C@H]1COc2ccc(Cl)cc2C1)c1cc2n(n1)CCC(OCC(F)(F)F)CO2 (single isomer, unassigned) [256 (isomer A)] | ≥ 3 µM | 
14 | < 1 µM |  | O=C(N[C@H]1COc2ccc(Cl)cc2C1)c1cc2n(n1)CCC(OCC(F)(F)F)CO2 (single isomer, unassigned) [256 (isomer B)] | 1 to 3 µM | 
15 | < 1 µM |  | O=C(N[C@H]1COc2ccc(C(F)(F)F)cc2C1)c1cc2n(n1)CCC(OCC(F)(F)F)CO2 (single isomer, unassigned) [257 (isomer A)] | ≥ 3 µM | 
16 | < 10 µM |  | CC(C)(F)C1CCn2nc(C(=O)N[C@H]3COc4ccc(C#N)cc4C3)cc2O1 (single isomer, unassigned) [547 (isomer A)] | ≥ 3 µM | 
17 | < 10 µM |  | N#Cc1ccc2c(c1)C[C@@H](NC(=O)c1cc3n(n1)CCC(COCC1(F)CC1)O3)CO2 (single isomer, unassigned) [552 (isomer A)] | ≥ 3 µM | 
18 | < 1 µM |  | N#CC1(COCC2CCn3nc(C(=O)N[C@H]4COc5ccc(C(F)(F)F)cc5C4)cc3O2)CC1 (single isomer, unassigned) [554 (isomer A)] | ≥ 3 µM | 
19 | < 10 µM |  | N#CC1(COCC2CCn3nc(C(=O)N[C@H]4COc5ccc(Cl)cc5C4)cc3O2)CC1 (single isomer, unassigned) [563 (isomer A)] | 1 to 3 µM | 
20 | < 1 µM |  | N#CC1(COCC2CCn3nc(C(=O)N[C@H]4COc5ccc(Cl)cc5C4)cc3O2)CC1 (single isomer, unassigned) [563 (isomer B)] | ≥ 3 µM | 

Row | IC50 [1, 3] | IC50 [1, 5] | SMILES | IC50 [2, 4] | IC50 [2, 6]
21 | < 1 µM |  | COC1c2cc(C(F)(F)F)ccc2OC[C@@H]1NC(=O)c1cc2n(n1)CCC(COCC(F)(F)F)O2 (single isomer, unassigned) [598 (isomer B)] | 1 to 3 µM | 
22 | < 1 µM |  | O=C(N[C@H]1COc2ccc(C(F)(F)F)cc2C1O)c1cc2n(n1)CC(CCOCC(F)(F)F)O2 (single isomer, unassigned) [600 (isomer B)] | 1 to 3 µM | 
23 | < 10 µM |  | O=C(N[C@H]1COc2ccc(CC(F)F)cc2C1)c1cc2n(n1)CCC(COCC(F)(F)F)CO2 (single isomer, unassigned) [601 (isomer B)] | ≥ 3 µM | 
24 | < 1 µM |  | O=C(N[C@H]1COc2ccc(COCC(F)(F)F)cc2C1)c1cc2n(n1)CCC(COCC(F)(F)F)CO2 (single isomer, unassigned) [602 (isomer A)] | ≥ 3 µM | 
25 | < 1 µM |  | O=C(N[C@H]1COc2ccc(C(F)(F)F)cc2C1O)c1cc2n(n1)CC(CCCOCC(F)(F)F)O2 (single isomer, unassigned) [603 (isomer B)] | ≥ 3 µM | 
26 | < 1 µM |  | N#Cc1ccc2c(c1)C[C@@H](NC(=O)c1cc3n(n1)CC(CCCOCC(F)F)O3)CO2 (single isomer, unassigned) [604 (isomer A)] | 1 to 3 µM | 
27 | < 1 µM |  | O=C(N[C@H]1COc2ccc(C(F)(F)F)cc2C1O)c1cc2n(n1)CC(CCCOCC(F)F)O2 (single isomer, unassigned) [608 (isomer A)] | ≥ 3 µM | 
28 | < 1 µM |  | O=C(N[C@H]1COc2ccc(C(F)(F)F)cc2C1O)c1cc2n(n1)CC(CCCOCC(F)F)O2 (single isomer, unassigned) [608 (isomer B)] | ≥ 3 µM | 
29 | < 1 µM |  | O=C(N[C@H]1COc2ccc(C(F)(F)F)cc2C1O)c1cc2n(n1)CC(CCCOCC(F)F)O2 (single isomer, unassigned) [610 (isomer A)] | ≥ 3 µM | 
30 | < 1 µM |  | O=C(N[C@H]1COc2ccc(COCC(F)(F)F)cc2C1)c1cc2n(n1)CCC(C1CCOCC1)O2 (single isomer, unassigned) [615 (isomer A)] | 1 to 3 µM | 
31 | < 1 µM |  | O=C(N[C@H]1COc2ccc(COCC(F)(F)F)cc2C1)c1cc2n(n1)CCC(C1CCOCC1)O2 (single isomer, unassigned) [615 (isomer B)] | ≥ 3 µM | 
32 | < 1 µM |  | O=C(N[C@H]1COc2ccc(C(F)(F)F)cc2C1O)c1cc2n(n1)CC(CCCOCC(F)(F)F)O2 (single isomer, unassigned) [616 (isomer A)] | 1 to 3 µM | 
33 | < 1 µM |  | N#Cc1ccc2c(c1)C(F)[C@@H](NC(=O)c1cc3n(n1)CCC(COCC1CC1)O3)CO2 (single isomer, unassigned) [617 (isomer A)] | ≥ 3 µM | 
34 | < 10 µM |  | N#Cc1ccc2c(c1)C(F)[C@@H](NC(=O)c1cc3n(n1)CCC(COCC1CC1)O3)CO2 (single isomer, unassigned) [617 (isomer C)] | ≥ 3 µM | 
35 | < 1 µM |  | O=C(N[C@H]1COc2ccc(COCC(F)(F)F)cc2C1)c1cc2n(n1)CC(CC1CCOCC1)O2 (single isomer, unassigned) [622 (isomer A)] | ≥ 3 µM | 
36 |  | < 1 µM | O=C(N[C@H]1COc2ccc(Cl)cc2C1)c1cn2c(n1)CCC(C(F)(F)F)C2 (single isomer, unassigned) [Example 2 (isomer A)] |  | 1 to 3 µM
37 |  | < 1 µM | O=C(N[C@H]1COc2ccc(Cl)cc2C1)c1cn2c(n1)CCC(C(F)(F)F)C2 (single isomer, unassigned) [Example 2 (isomer B)] |  | ≥ 3 µM
38 |  | < 10 µM | CN(C(=O)c1cn2c(n1)CCC(C(F)(F)F)C2)[C@H]1COc2ccc(Cl)cc2C1 (single isomer, unassigned) [Example 4] |  | ≥ 3 µM
39 | < 10 µM |  | O=C(N[C@H]1COc2ccc(C(F)(F)F)cc2C1O)c1cc2n(n1)CCC(COCC(F)(F)F)CO2 (single isomer, unassigned) [Example 683] | ≥ 3 µM | 

Row | SMILES | IC50 [1, 3] | IC50 [1, 5] | IC50 [2, 4] | IC50 [2, 6]
40 | N#Cc1ccc2c(c1)C[C@@H](NC(=O)c1cc3n(n1)CC[C@H](COCC(F)(F)F)CO3)CO2 (single isomer, unassigned; isomer a) [572(isomer A)] | < 10 µM |  | ≥ 3 µM | 
41 | O=C(N[C@H]1COc2ccc(C(F)(F)F)cc2C1O)c1cc2n(n1)CC[C@H](COCC1CC1)O2 (single isomer, unassigned; isomer a) [575(isomer A)] | < 1 µM |  | 1 to 3 µM | 
42 | O=C(N[C@H]1COc2ccc(C(F)(F)F)cc2C1O)c1cc2n(n1)C[C@H](COCC1CC1)O2 (single isomer, unassigned; isomer a) [576(isomer A)] | < 1 µM |  | ≥ 3 µM | 
43 | O=C(N[C@H]1COc2ccc(C(F)(F)F)cc2C1F)c1cc2n(n1)CC[C@H](C(F)F)O2 (single isomer, unassigned; isomer a) [579(isomer A)] | < 1 µM |  | 1 to 3 µM | 
44 | COC1c2cc(C(F)(F)F)ccc2OC[C@@H]1NC(=O)c1cc2n(n1)CC(COCC(F)(F)F)O2 (single isomer, unassigned; isomer a) [597(isomer A)] | < 1 µM |  | ≥ 3 µM | 
45 | COC1c2cc(C(F)(F)F)ccc2OC[C@@H]1NC(=O)c1cc2n(n1)CC(COCC(F)(F)F)O2 (single isomer, unassigned; isomer b) [597(isomer B)] | < 1 µM |  | 1 to 3 µM | 
